Converted amounts (≈) assume the structure as drawn.
Columns and labels:
Test in all cases: In vitro antibacterial evaluation: minimum inhibitory concentration (MIC), broth dilution method
Type in all cases: cell-based
Enterococcus sp. = conditions: for MIC Enterococcus faecalis (GC 2242) / MIC Enterococcus faecalis (GC 4552): 18 hours at 35° C.
Procedure, shortened: (§1)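 Values are minimum inhibitory concentrations, meaning the smallest antibiotic concentration that stops growth of the organism. They come from broth dilution in Muller-Hinton II […] per NCCLS guidance (M7-A2), using 5×10^5 CFU/mL and concentrations from 64 to 0.06 μg/mL.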

Escherichia coli [1] = tested on: Escherichia coli
Procedure, shortened: as §1

Staphylococcus sp. = conditions: 18 hours at 35° C.
Procedure, shortened: as §1

Streptococcus sp. = conditions: 18 hours at 35° C.
Procedure, shortened: as §1

Escherichia coli [2] = tested on: Escherichia coli; remark: listed apart in the source

Compound | MIC Enterococcus avium (GC 4558) (Enterococcus sp.) | MIC Enterococcus faecalis (ATCC 29212) (Enterococcus sp.) | MIC Enterococcus faecalis (GC 2242) (Enterococcus sp.) | MIC Enterococcus faecalis (GC 4552) (Enterococcus sp.) | MIC Enterococcus faecalis (GC 4553) (Enterococcus sp.) | MIC Enterococcus faecalis (GC 4554) (Enterococcus sp.) | MIC Enterococcus faecium (GC 2243) (Enterococcus sp.) | MIC Enterococcus faecium (GC 4556) (Enterococcus sp.) | MIC Enterococcus faecium (GC 4557) (Enterococcus sp.) | MIC Escherichia coli (GC 4559) (Escherichia coli [1]) | MIC Escherichia coli (GC 4560) (Escherichia coli [1]) | MIC Coagulase Negative Staphylococcus (GC 4547) (Staphylococcus sp.) | MIC Coagulase Negative Staphylococcus (GC 4547) (Staphylococcus sp.; broth dilution) | MIC Coagulase Negative Staphylococcus (GC 4548) (Staphylococcus sp.) | MIC Coagulase Negative Staphylococcus (GC 4548) (Staphylococcus sp.; broth dilution) | MIC Coagulase Negative Staphylococcus (GC 4549) (Staphylococcus sp.) | MIC Coagulase Negative Staphylococcus (GC 4549) (Staphylococcus sp.; broth dilution) | MIC Coagulase Negative Staphylococcus (GC 4551) (Staphylococcus sp.) | MIC Coagulase Negative Staphylococcus (GC 4551) (Staphylococcus sp.; broth dilution) | MIC Staphylococcus aureus (ATCC 29213) (Staphylococcus sp.) | further results
CC(C)CC(=O)OC1C(O)C(CO)OC(OC2C(CO)OC(Oc3ccc(CC4NC(=O)C(C(C)c5cccc(F)c5)NC(=O)CNC(=O)C(CO)NC(=O)C(C(O)C5CNC(=N)N5C5OC(CO)C(O)C(O)C5O)NC(=O)C(C(O)C5CNC(=N)N5)NC4=O)cc3)C(O)C2O)C1O (stereo not shown) [Example 264b] | 64 µg/mL (≈ 45.8 µM) | 64 µg/mL (≈ 45.8 µM) | 32 µg/mL (≈ 22.9 µM) | 64 µg/mL (≈ 45.8 µM) | 64 µg/mL (≈ 45.8 µM) | 64 µg/mL (≈ 45.8 µM) | 64 µg/mL (≈ 45.8 µM) | 64 µg/mL (≈ 45.8 µM) | 8 µg/mL (≈ 5.72 µM) | >64 µg/mL | 4 µg/mL (≈ 2.86 µM) | 4 µg/mL (≈ 2.86 µM) | 4 µg/mL (≈ 2.86 µM) | 4 µg/mL (≈ 2.86 µM) | 4 µg/mL (≈ 2.86 µM) | 4 µg/mL (≈ 2.86 µM) | 4 µg/mL (≈ 2.86 µM) | 8 µg/mL (≈ 5.72 µM) | 8 µg/mL (≈ 5.72 µM) | 8 µg/mL (≈ 5.72 µM) | MIC Staphylococcus aureus (ATCC 29213) (Staphylococcus sp.; broth dilution): 8 µg/mL (≈ 5.72 µM); MIC Staphylococcus aureus (GC 1131) (Staphylococcus sp.): 8 µg/mL (≈ 5.72 µM); MIC Staphylococcus aureus (GC 1131) (Staphylococcus sp.; broth dilution): 8 µg/mL (≈ 5.72 µM); MIC Staphylococcus aureus (GC 4541) (Staphylococcus sp.): 8 µg/mL (≈ 5.72 µM); MIC Staphylococcus aureus (GC 4541) (Staphylococcus sp.; broth dilution): 8 µg/mL (≈ 5.72 µM); MIC Staphylococcus aureus (GC 4542) (Staphylococcus sp.): 8 µg/mL (≈ 5.72 µM); MIC Staphylococcus aureus (GC 4542) (Staphylococcus sp.; broth dilution): 8 µg/mL (≈ 5.72 µM); MIC Staphylococcus aureus (GC 4544) (Staphylococcus sp.): 8 µg/mL (≈ 5.72 µM); MIC Staphylococcus aureus (GC 4544) (Staphylococcus sp.; broth dilution): 8 µg/mL (≈ 5.72 µM); MIC Staphylococcus aureus (GC 4545) (Staphylococcus sp.): 4 µg/mL (≈ 2.86 µM); MIC Staphylococcus aureus (GC 4545) (Staphylococcus sp.; broth dilution): 4 µg/mL (≈ 2.86 µM); MIC Staphylococcus aureus-SMITH (GC 4543) (Staphylococcus sp.): 8 µg/mL (≈ 5.72 µM); MIC Staphylococcus aureus-SMITH (GC 4543) (Staphylococcus sp.; broth dilution): 8 µg/mL (≈ 5.72 µM); MIC Staphylococcus haemolyticus (GC 4546) (Staphylococcus sp.): 4 µg/mL (≈ 2.86 µM); MIC Staphylococcus haemolyticus (GC 4546) (Staphylococcus sp.; broth dilution): 4 µg/mL (≈ 2.86 µM); MIC Streptococcus agalactiae (GC 4564) (Streptococcus sp.): 4 µg/mL (≈ 2.86 µM); MIC Streptococcus pyogenes (ID-3187) (Streptococcus sp.): 4 µg/mL (≈ 2.86 µM); MIC Escherichia coli (ATCC 25922) (Escherichia coli [2]): 64 µg/mL (≈ 45.8 µM)
CC(C)CC(=O)OC1C(O)C(CO)OC(OC2C(CO)OC(Oc3ccc(CC4NC(=O)C(C(C)c5ccc(Cl)cc5)NC(=O)CNC(=O)C(CO)NC(=O)C(C(O)C5CNC(=N)N5C5OC(CO)C(O)C(O)C5O)NC(=O)C(C(O)C5CNC(=N)N5)NC4=O)cc3)C(O)C2O)C1O (stereo not shown) [Example 262b] | 16 µg/mL (≈ 11.3 µM) | 32 µg/mL (≈ 22.6 µM) | 16 µg/mL (≈ 11.3 µM) | 32 µg/mL (≈ 22.6 µM) | 32 µg/mL (≈ 22.6 µM) | 32 µg/mL (≈ 22.6 µM) | 16 µg/mL (≈ 11.3 µM) | 16 µg/mL (≈ 11.3 µM) | 2 µg/mL (≈ 1.41 µM) | >64 µg/mL | 1 µg/mL (≈ 0.707 µM) | 2 µg/mL (≈ 1.41 µM) | 2 µg/mL (≈ 1.41 µM) | 1 µg/mL (≈ 0.707 µM) | 1 µg/mL (≈ 0.707 µM) | 1 µg/mL (≈ 0.707 µM) | 1 µg/mL (≈ 0.707 µM) | 2 µg/mL (≈ 1.41 µM) | 2 µg/mL (≈ 1.41 µM) | 4 µg/mL (≈ 2.83 µM) | MIC Staphylococcus aureus (ATCC 29213) (Staphylococcus sp.; broth dilution): 4 µg/mL (≈ 2.83 µM); MIC Staphylococcus aureus (GC 1131) (Staphylococcus sp.): 4 µg/mL (≈ 2.83 µM); MIC Staphylococcus aureus (GC 1131) (Staphylococcus sp.; broth dilution): 4 µg/mL (≈ 2.83 µM); MIC Staphylococcus aureus (GC 4541) (Staphylococcus sp.): 2 µg/mL (≈ 1.41 µM); MIC Staphylococcus aureus (GC 4541) (Staphylococcus sp.; broth dilution): 2 µg/mL (≈ 1.41 µM); MIC Staphylococcus aureus (GC 4542) (Staphylococcus sp.): 2 µg/mL (≈ 1.41 µM); MIC Staphylococcus aureus (GC 4542) (Staphylococcus sp.; broth dilution): 2 µg/mL (≈ 1.41 µM); MIC Staphylococcus aureus (GC 4544) (Staphylococcus sp.): 4 µg/mL (≈ 2.83 µM); MIC Staphylococcus aureus (GC 4544) (Staphylococcus sp.; broth dilution): 4 µg/mL (≈ 2.83 µM); MIC Staphylococcus aureus (GC 4545) (Staphylococcus sp.): 2 µg/mL (≈ 1.41 µM); MIC Staphylococcus aureus (GC 4545) (Staphylococcus sp.; broth dilution): 2 µg/mL (≈ 1.41 µM); MIC Staphylococcus aureus-SMITH (GC 4543) (Staphylococcus sp.): 1 µg/mL (≈ 0.707 µM); MIC Staphylococcus aureus-SMITH (GC 4543) (Staphylococcus sp.; broth dilution): 1 µg/mL (≈ 0.707 µM); MIC Staphylococcus haemolyticus (GC 4546) (Staphylococcus sp.): 2 µg/mL (≈ 1.41 µM); MIC Staphylococcus haemolyticus (GC 4546) (Staphylococcus sp.; broth dilution): 2 µg/mL (≈ 1.41 µM); MIC Streptococcus agalactiae (GC 4564) (Streptococcus sp.): 1 µg/mL (≈ 0.707 µM); MIC Streptococcus pyogenes (ID-3187) (Streptococcus sp.): 1 µg/mL (≈ 0.707 µM); MIC Escherichia coli (ATCC 25922) (Escherichia coli [2]): >64 µg/mL
